{
  "source": "the supplement of paper PMC11208160",
  "data": [
    {"test": "recombinant UMI read abundance after kanamycin selection (control-corrected) (log10(CPM+1)); higher = more efficient recombination; extreme values may be limits of the assay; sequences stand for … in AGTGCAGAGAAAATCGGCCAGTTTTCTCTGCCTGCAGTCCGCATGCCGTGGGACCCCTTGGGTTCTAACCTGTTGCCTAGATTTATGCAGCGGACTGCCTTTCTCCCAAAGTGATAAACCGG…AGGTTGGTTTCACT; site = the 11-nt donor", "summary_of_the_method": "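After plating on IPTG (0.07 mM) plus kanamycin, or unselected, in two replicates, recombinant UMIs were PCR-amplified across the donor–target junction and sequenced. The cells were Escherichia coli co-electroporated with a UMI-tagged donor and donor-binding-loop pair library and a target plasmid with a fixed target and T7-inducible IS621 bridge recombinase. Values are log10(CPM+1), with CPM averaged over replicates and scaled by control-derived factors.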", "values": [
      {"sequence": "TATTTGGCATGGACCGGTTTTCCCGGTAATCCGTATTTGTG (site TATTTAGCTCA)", "recombinant UMI read abundance (log10)": 0.0189},
      {"sequence": "TATTTGGCATGGACCGGTTTTCCCGGTAATCCGTATTTGTG (site TATTTCGCTCA)", "recombinant UMI read abundance (log10)": 0.00607},
      {"sequence": "TATTTGGCATGGACCGGTTTTCCCGGTAATCCGTATTTGTG (site TATTTGACTCA)", "recombinant UMI read abundance (log10)": 0.0103},
      {"sequence": "TATTTGGCATGGACCGGTTTTCCCGGTAATCCGTATTTGTG (site TATTTGCCTCA)", "recombinant UMI read abundance (log10)": 0.00864},
      {"sequence": "TATTTGGCATGGACCGGTTTTCCCGGTAATCCGTATTTGTG (site TATTTGGCTAA)", "recombinant UMI read abundance (log10)": 0.0123},
      {"sequence": "TATTTGGCATGGACCGGTTTTCCCGGTAATCCGTATTTGTG (site TATTTGGCTCA)", "recombinant UMI read abundance (log10)": 0.0246},
      {"sequence": "TATTTGGCATGGACCGGTTTTCCCGGTAATCCGTATTTGTG (site TATTTGGCTCC)", "recombinant UMI read abundance (log10)": 0.0133},
      {"sequence": "TATTTGGCATGGACCGGTTTTCCCGGTAATCCGTATTTGTG (site TATTTGGCTCG)", "recombinant UMI read abundance (log10)": 0.00904},
      {"sequence": "TATTTGGCATGGACCGGTTTTCCCGGTAATCCGTATTTGTG (site TATTTGGCTCT)", "recombinant UMI read abundance (log10)": 0.0103},
      {"sequence": "TATTTGGCATGGACCGGTTTTCCCGGTAATCCGTATTTGTG (site TATTTGGCTGA)", "recombinant UMI read abundance (log10)": 0},
      {"sequence": "TATTTGGCATGGACCGGTTTTCCCGGTAATCCGTATTTGTG (site TATTTGGCTTA)", "recombinant UMI read abundance (log10)": 0.0236},
      {"sequence": "TATTTGGCATGGACCGGTTTTCCCGGTAATCCGTATTTGTG (site TATTTGTCTCA)", "recombinant UMI read abundance (log10)": 0.0606},
      {"sequence": "TATTTGGCATGGACCGGTTTTCCCGGTAATCCGTATTTGTG (site TATTTTGCTCA)", "recombinant UMI read abundance (log10)": 0.0154},
      {"sequence": "TATTTGGCATGGACCGGTTTTCCCGGTAATCCGTATTTGTG (site TCTTTGGCTCA)", "recombinant UMI read abundance (log10)": 0.00921},
      {"sequence": "TATTTGGCATGGACCGGTTTTCCCGGTAATCCGTATTTGTG (site TGTTTGGCTCA)", "recombinant UMI read abundance (log10)": 0.00811},
      {"sequence": "TATTTGGCATGGACCGGTTTTCCCGGTAATCCGTATTTGTG (site TTTTTGGCTCA)", "recombinant UMI read abundance (log10)": 0.0282},
      {"sequence": "TCAAAGACATGGACCGGTTTTCCCGGTAATCCGTATTTGCG (site TCAAAGACTCG)", "recombinant UMI read abundance (log10)": 1.9},
      {"sequence": "TCAAAGACATGGACCGGTTTTCCCGGTAATCCGTATTTGCG (site TCACAGACTCG)", "recombinant UMI read abundance (log10)": 0.546},
      {"sequence": "TCAAAGACATGGACCGGTTTTCCCGGTAATCCGTATTTGCG (site TCAGAGACTCG)", "recombinant UMI read abundance (log10)": 0.87},
      {"sequence": "TCAAAGACATGGACCGGTTTTCCCGGTAATCCGTATTTGCG (site TCATAGACTCG)", "recombinant UMI read abundance (log10)": 0.773},
      {"sequence": "TCAACCGCATGGACCGGTTTTCCCGGTAATCCGTATTTGCG (site TCAACCGCTCG)", "recombinant UMI read abundance (log10)": 0},
      {"sequence": "TCAACCGCATGGACCGGTTTTCCCGGTAATCCGTATTTGCG (site TCCACCGCTCG)", "recombinant UMI read abundance (log10)": 0},
      {"sequence": "TCAACCGCATGGACCGGTTTTCCCGGTAATCCGTATTTGCG (site TCGACCGCTCG)", "recombinant UMI read abundance (log10)": 0.00292},
      {"sequence": "TCAACCGCATGGACCGGTTTTCCCGGTAATCCGTATTTGCG (site TCTACCGCTCG)", "recombinant UMI read abundance (log10)": 0},
      {"sequence": "TCAACGGCATGGACCGGTTTTCCCGGTAATCCGTATTTGCC (site TCAACGGCTGG)", "recombinant UMI read abundance (log10)": 0.143},
      {"sequence": "TCAAGCACATGGACCGGTTTTCCCGGTAATCCGTATTTGAT (site TCAAGCACTAT)", "recombinant UMI read abundance (log10)": 1.94},
      {"sequence": "TCAAGTCCATGGACCGGTTTTCCCGGTAATCCGTATTTGTA (site TAAAGTCCTTA)", "recombinant UMI read abundance (log10)": 0.314},
      {"sequence": "TCAAGTCCATGGACCGGTTTTCCCGGTAATCCGTATTTGTA (site TCAAGTCCTTA)", "recombinant UMI read abundance (log10)": 1.01},
      {"sequence": "TCAAGTCCATGGACCGGTTTTCCCGGTAATCCGTATTTGTA (site TGAAGTCCTTA)", "recombinant UMI read abundance (log10)": 0.226},
      {"sequence": "TCAAGTCCATGGACCGGTTTTCCCGGTAATCCGTATTTGTA (site TTAAGTCCTTA)", "recombinant UMI read abundance (log10)": 0.0663},
      {"sequence": "TCAATGACATGGACCGGTTTTCCCGGTAATCCGTATTTGGT (site TCAATGACTAC)", "recombinant UMI read abundance (log10)": 0.953},
      {"sequence": "TCACACCCATGGACCGGTTTTCCCGGTAATCCGTATTTGCC (site TCACACCCTGG)", "recombinant UMI read abundance (log10)": 0.92},
      {"sequence": "TCACAGACATGGACCGGTTTTCCCGGTAATCCGTATTTGCG (site TCAAAGACTCG)", "recombinant UMI read abundance (log10)": 0.308},
      {"sequence": "TCACAGACATGGACCGGTTTTCCCGGTAATCCGTATTTGCG (site TCACAGACTCG)", "recombinant UMI read abundance (log10)": 2.16},
      {"sequence": "TCACAGACATGGACCGGTTTTCCCGGTAATCCGTATTTGCG (site TCAGAGACTCG)", "recombinant UMI read abundance (log10)": 0.267},
      {"sequence": "TCACAGACATGGACCGGTTTTCCCGGTAATCCGTATTTGCG (site TCATAGACTCG)", "recombinant UMI read abundance (log10)": 0.29},
      {"sequence": "TCACATCCATGGACCGGTTTTCCCGGTAATCCGTATTTGAC (site ACACATCCTGT)", "recombinant UMI read abundance (log10)": 0},
      {"sequence": "TCACATCCATGGACCGGTTTTCCCGGTAATCCGTATTTGAC (site CCACATCCTGT)", "recombinant UMI read abundance (log10)": 0}
    ]}
  ]
}
